According to US9598463B2, “Mucin hypersecretion inhibitors and methods of use” (BIOMARCK PHARMACEUTICALS, LTD., priority 2005, dated 2017):
Marks after values point to notes of the source that are not given here. Where a SMILES comes first, the peptide text is derived from it. The star is where a group is joined. Myristoyl = CCCCCCCCCCCCCC(=O)*

Legend:
[1] = Stability of test peptides in human BALF (LC/MS/MS, first order half-life); assay type: in vitro ADME; settings: human BALF from COPD patients
Experimental: (§1) Various test peptides in human plasma, human BALF, and CF patient mucus were analyzed to determine the susceptability of the test peptide to proteolysis in the biological fluids. […] The samples were analyzed either on the same day as received or stored at −20° C. and analyzed within the following two days.
Samples of BALF collected from COPD patients were obtained and frozen. The BALF samples were thawed, mixed together and centrifuged at 10,000×g for 10 min at 4-8° C. The supernatant (0.9 mL) was spiked with 0.1 mL of 0.5 mg/mL solution of the peptide in 75 mM sodium acetate buffer at pH 7.0 and processed and analyzed as described above.
(§2) All samples were analyzed using LC/MS/MS (MDS/SCIEX, API 4000 Model). Chromatography was performed using a Phenomenex Luna C18 column, while mass spectrometry was performed using positive ion electrospray ionization.
(§3) Calibration standards were analyzed by LCMS at concentrations of 0.100 μg/mL, 1.00 μg/mL, 10.0 μg/mL, and 100 μg/mL for each peptide, with the exception of the calibration standards for peptides myr-PEPTIDE 106, PEPTIDE 106, PEPTIDE 106-NH2, PEPTIDE 106, and cyclic peptide, cyc-PEPTIDE 106, in human mucus, which were analyzed at concentrations of 0.100 μg/mL, 1.00 μg/mL, 10.0 μg/mL, and 75 μg/mL. Standards were prepared in 1% human BALF, plasma, or mucus in 50/50 water/acetonitrile mixture containing 0.2% formic acid. The instrument response values for each set of standards were fit using a 1/(concentration)^2 linear least-squares line. Sample concentrations were calculated using the slope and intercept of this line. Concentrations outside of the calibration range were determined by extrapolating the calibration curve.
Duplicate calibration standards were analyzed at a concentration of 50 μg/mL for each peptide. The instrument response values for each set of standards were fit through an intercept of 0 using an unweighted, linear least-squares line. Sample concentrations were calculated using the slope and intercept of this line.
For the analysis of peptide concentration in BALF samples, one 50 μg/mL calibration standard prepared in a mixture of BALF, water, acetonitrile, and formic acid was analyzed with each sample set.
(§4) Watson fits the log transformed data with a least-squares line to determine parameters such as Cmax (maximum concentration), intercept, rate constant, slope, and T1/2 (half-life). The resulting kinetic parameters were based on the linear fit, not the actual concentration values.
(§5) Time-zero calibration standards in solution were not included as part of the kinetic profiles.

[2] = Qualitative solubility of test peptides in 0.5 N saline; assay type: physicochemical; settings: pH 6.5, 20° C. (table title)
Experimental: Various test peptides (1 to 5 mg each) were weighed out accurately in individual 2 mL screw cap glass vials and aliquots of 25 μL of 0.5 N saline, pH 6.5, were added at 25° C. and ambient pressure. The solubility was evaluated visually. If the test peptide dissolves completely with the first aliquot of saline, its solubility was calculated and designated as more than the calculated amount. […] Similarly, if 1.7 mg of a test peptide fails to dissolve in 1.7 mL of 0.5 N saline, its solubility is stated as <1.0 mg/mL.

[3] = tested on: methacholine-induced mucin hypersecretion; experiment: Methacholine-induced mucin hypersecretion in ovalbumin-sensitized mouse model of asthma, BAL mucin ELISA (Balb/C mice); assay type: in vivo; settings: for Mucin Secretion % control: peptides at 100 μM; for Mucin Secretion % of control: Table IV
Source text: Experiments were designed to test whether or not the MANS peptide and other test peptides related thereto inhibit hypersecretion of mucin in murine airway in vivo. The ovalbumin-sensitized mouse model of allergic inflammation and asthma used in these studies was as described by Singer et al. (2004), supra. As a negative control, a control peptide containing an N-terminal myristoyl group and the same amino acids as MANS peptide but arranged in random order (i.e., the random N-terminal sequence, RNS, myristoyl-peptide 232) was tested alongside the proposed active peptides. BP2 mice, aged 6-8 wks, were immunized subcutaneously twice at weekly intervals with 1 μg of ovalbumin. After 14 days of sensitization, the animals were exposed to aerosolized ovalbumin, which causes a pronounced goblet cell hyperplasia after 72 hours. At the 72 hr time point, the secretagogue, methacholine ([…]) was delivered using a Buxco system nebulizer providing a fine aerosol for 90 seconds. Fifteen min prior to the secretagogue challenge, 50 μL of the test peptide, at 3 different concentrations (10 μM, 100 μM, or 140 μM), was administered by intratracheal route. The RNS peptide was tested at the highest dose level only (50 μL of 140 μM solution). […] Each experiment was carried out in 6 mice per point, and each set of experiments was repeated 3 times. To test strain-to-strain variations, the above experiment was repeated in Balb/C mice under similar protocol. Both stimulated and unstimulated mucin secretion, in mice treated with […] sodium acetate (data not shown), were identical to saline control. Following the methacholine challenge, the animals were sacrificed and bronchoalveolar lavage (BAL) performed on 6 animals per group for analysis of secreted mucin.
Mice were sacrificed by cervical dislocation, followed by rapid exposure of the trachea and insertion of a cannula through a small incision. Bronchoalveolar lavage (BAL) fluid was collected with 0.5 ml followed by 3×1 ml PBS containing PMSF (5 mM), EDTA (5 mM), and DTT (5 mM). BAL fluid was separated into cell-free and cell fractions via brief centrifugation prior to any analyses being performed. The cell-free supernatants were analyzed for the presence of mucin via an ELISA method using anti-mucin antibodies shown to react with mouse mucin. Specifically, a mouse anti-MUC5AC antibody that recognizes the carbohydrate portion of secreted mucin was used in these assays. Data generated from each BAL sample were normalized to total protein as determined by Bradford assay. Mucin content was expressed as the value obtained with the anti-mucin antibody minus that obtained with the non-immune control antibody. All ELISA data were statistically examined using a one-way ANOVA.

[4] = Stability of test peptides in human plasma (LC/MS/MS, first order half-life); assay type: in vitro ADME; settings: human plasma, 37° C., 1st experiment, read-out: Plasma t1/2 (1st exp.) (converted)
Experimental: as §1
Fresh human blood samples were collected in citrate buffered vacuutrainers (in absence of EDTA or heparin). Red blood cells (RBC) were removed by centrifugation of the blood at 4000×g for 10 min at 4° C. Plasma aliquots (0.9 mL) were then spiked with 0.1 mL of 0.5 mg/mL solution of the test peptide in 75 mM sodium acetate buffer at pH 7.0 and incubated in a water bath maintained at 37° C. Duplicate aliquots of 10 μL, were withdrawn at 5, 15, 30, 60, and 180 minutes intervals and immediately “quenched” with 990 μL of a solution consisting of 50% acetonitrile+50% water containing 0.2% formic acid. The samples were then subjected to liquid chromatography-mass spectrometry (LCMS) analysis.
as §2
as §3, with “curve. […]” for “curve.”
For the analysis of peptide concentration in plasma, duplicate calibration standards were analyzed at a concentration of 25 μg/mL and 50 μg/mL for each peptide. The instrument response values for each set of standards were fit through an intercept of 0 using an unweighted, linear least-squares line. Sample concentrations were calculated using the slope and intercept of this line. Concentrations outside of the calibration range were determined by extrapolating the calibration curve.
as §4, §5

[5] = cerebrospinal or other body fluid, 1st experiment, read-out: BALF t1/2 (1st exp.) (converted)
[6] = cerebrospinal or other body fluid, 2nd experiment, read-out: BALF t1/2 (2nd exp.) (converted)
[7] = Table II, 50 μL intratracheal 15 min before methacholine

Compound	solubility [2] [µg/mL]	Mucin Secretion % control [3, 7] [% control]	Mucin Secretion % control ([3]; Table III)	also measured
CCCCCCCCCCCCCC(=O)NCC(=O)N[C@@H](C)C(=O)N[C@@H](CCC(N)=O)C(=O)N[C@@H](C)C(=O)N[C@@H](CO)C(=O)N[C@@H](CCCCN)C(=O)N[C@H](C(=O)N[C@@H](C)C(=O)N[C@@H](C)C(=O)N[C@@H](CCCCN)C(N)=O)[C@@H](C)O [myr-peptide 236-NH2] (Myristoyl-GAQASKTAAK-NH2)	< 10000	51	–	half-life [1, 5]: 4.16 h; half-life [1, 6]: 4.08 h
CCCCCCCCCCCCCC(=O)NCC(=O)N[C@@H](C)C(=O)N[C@@H](CCC(N)=O)C(=O)N[C@@H](Cc1ccccc1)C(=O)N[C@@H](CO)C(=O)N[C@@H](CCCCN)C(=O)N[C@H](C(=O)N[C@@H](C)C(=O)O)[C@@H](C)O [myr-peptide 137] (Myristoyl-GAQFSKTA-OH)	< 1000	55	–	–
CCCCCCCCCCCCCC(=O)NCC(=O)N[C@@H](C)C(=O)N[C@@H](CCC(N)=O)C(=O)N[C@@H](Cc1ccccc1)C(=O)N[C@@H](CO)C(=O)N[C@@H](CCCCN)C(=O)N[C@H](C(=O)N[C@@H](C)C(=O)N[C@@H](C)C(=O)N[C@@H](CCCCN)C(=O)NCC(=O)N[C@@H](CCC(=O)O)C(=O)O)[C@@H](C)O [myr-peptide 79] (Myristoyl-GAQFSKTAAKGE-OH)	> 2000	50	48 % control	–
CCCCCCCCCCCCCC(=O)N[C@@H](C)C(=O)N[C@@H](C)C(=O)N[C@@H](C)C(=O)N[C@@H](CCC(=O)O)C(=O)N[C@@H](CCCNC(=N)N)C(=O)N1CCC[C@H]1C(=O)NCC(=O)N[C@@H](CCC(=O)O)C(=O)N[C@@H](C)C(=O)N[C@@H](C)C(=O)N[C@H](C(=O)N[C@@H](C)C(=O)O)C(C)C [myr-peptide 91] (Myristoyl-AAAERPGEAAVA-OH)	< 20000	–	68 % control	–
CCCCCCCCCCCCCC(=O)NCC(=O)N[C@@H](C)C(=O)N[C@@H](CCC(N)=O)C(=O)N[C@@H](Cc1ccccc1)C(=O)N[C@@H](CO)C(=O)N[C@@H](CCCCN)C(=O)N[C@H](C(=O)N[C@@H](C)C(=O)N[C@@H](C)C(=O)N[C@@H](CCCCN)C(N)=O)[C@@H](C)O [myr-peptide 106-NH2] (Myristoyl-GAQFSKTAAK-NH2)	< 10000	29.3	–	half-life [1, 5]: 10.5 h; half-life [1, 6]: 12.8 h; Mucin Secretion % of control ([3]; peptide 10 μM): 67*+ % of control; Mucin Secretion % of control ([3]; peptide 100 μM): 17** % of control
CCCCCCCCCCCCCC(=O)N[C@@H](C)C(=O)N[C@@H](CCCCN)C(=O)NCC(=O)N[C@@H](CCC(=O)O)C(=O)N[C@@H](C)C(=O)N[C@@H](C)C(=O)N[C@@H](C)C(=O)N[C@@H](CCC(=O)O)C(=O)N[C@@H](CCCNC(=N)N)C(=O)N1CCC[C@H]1C(=O)NCC(=O)N[C@@H](CCC(=O)O)C(=O)N[C@@H](C)C(=O)N[C@@H](C)C(=O)N[C@H](C(=O)N[C@@H](C)C(=O)O)C(C)C [myr-peptide 45] (Myristoyl-AKGEAAAERPGEAAVA-OH)	> 80000	–	35** % control	–
CCCCCCCCCCCCCC(=O)NCC(=O)N[C@@H](C)C(=O)N[C@@H](CCC(N)=O)C(=O)N[C@@H](Cc1ccccc1)C(=O)N[C@@H](CO)C(=O)N[C@@H](CCCCN)C(=O)N[C@H](C(=O)N[C@@H](C)C(=O)N[C@@H](C)C(=O)N[C@@H](CCCCN)C(=O)NCC(=O)N[C@@H](CCC(=O)O)C(=O)N[C@@H](C)C(=O)N[C@@H](C)C(=O)N[C@@H](C)C(=O)N[C@@H](CCC(=O)O)C(=O)N[C@@H](CCCNC(=N)N)C(=O)N1CCC[C@H]1C(=O)NCC(=O)N[C@@H](CCC(=O)O)C(=O)O)[C@@H](C)O [myr-peptide 11] (Myristoyl-GAQFSKTAAKGEAAAERPGE-OH)	> 2000	–	54 % control	–
Ac-GAQFSKTAAKGE-NH2 [Ac-peptide 79-NH2]	> 60000	–	–	half-life [4]: 2.64 h
CCCCCCCCCCCCCC(=O)NCC(=O)N[C@@H](C)C(=O)N[C@@H](CCC(N)=O)C(=O)N[C@@H](Cc1ccccc1)C(=O)N[C@@H](CO)C(=O)N[C@@H](CCCCN)C(=O)N[C@H](C(=O)N[C@@H](CCCCN)C(=O)N[C@@H](C)C(=O)N[C@@H](CCCCN)C(=O)NCC(=O)N[C@@H](CCC(=O)O)C(=O)O)[C@@H](C)O [myr-peptide 234] (Myristoyl-GAQFSKTKAKGE-OH)	> 3000	8	–	half-life ([1]; 1st experiment, read-out: BALF t1/2 (1st exp.) (converted)): 1.08 h
H-GAQASKTAAKGE-OH [peptide 237, GAQASKTAAKGE]	> 80000	–	–	half-life [4]: 0.49 h; Mucin Secretion % of control ([3]; peptide 10 μM): 67*+ % of control; Mucin Secretion % of control ([3]; peptide 100 μM): 8** % of control
